Assay results reported in patent EP0402717A1, “5-nitro-tetrahydropyrimidines and insecticides containing them for agricultural uses” (NIHON BAYER AGROCHEM K.K., priority 1989, dated 1990).

What was measured:
Type in all cases: in vivo
NiIaparvata lugens Stal = experiment: Test on plant hoppers (spray on rice plants), brown rice planthopper; conditions: 48 h, read-out: Mortality (%) Brown rice planthopper
Method: (§1) A water dilution in a predetermined concentration of the active compound prepared as in Example 4 was sprayed onto rice plants, about 10 cm tall, grown in pots with a diameter of 12 cm in an amount of 10 ml per pot. The sprayed chemical was dried, and a wire net, 7 cm in diameter and 14 cm tall, was put over each of the pots. […] The mortality was then calculated.

[1] = test system: Laodelphax striatellus Fallen; experiment: Test on plant hoppers (spray on rice plants), small brown planthopper; conditions: 48 h, read-out: Mortality (%) Small brown planthopper
Method: as §1
(§2) In the same way as above, the mortality was calculated on Sogatella furcifera Horvath and organophosphorus-resistant Laodelphax striatellus Fallen.

[2] = test system: Sogatella furcifera Horvath; experiment: Test on plant hoppers (spray on rice plants), white-backed rice planthopper; conditions: 48 h, read-out: Mortality (%) Whight bached rice planthopper
Method: as §1, §2

Structure (SMILES)	mortality at 500 ppm (NiIaparvata lugens Stal)	mortality at 500 ppm [1]	mortality at 500 ppm [2]
O=c1[nH]c(=O)n2c(c1[N+](=O)[O-])NCC2 [Compound C-2]	0%	0%	0%
CNC1=C([N+](=O)[O-])CN(C)CN1Cc1ccc(Cl)nc1 [Compound 8]	100%	100%	100%
CN1CCN2C(=O)CCC([N+](=O)[O-])=C12 [Compound C-1]	0%	0%	0%
CCCCCCCCCCCCN1CC([N+](=O)[O-])=C(NC)N(Cc2ccc(Cl)nc2)C1 [Compound 41]	100%	100%	100%
